# Test results: PMC2409523, “Hormonal impact of the 17α-hydroxylase/C17,20-lyase inhibitor abiraterone acetate (CB7630) in patients with prostate cancer” (British Journal of Cancer, 2004)
# Where “and” joins values, the source holds several entries; their conditions need not be identical. Equal values may be shown once.
# Tests used:
# testosterone synthesis [1] = experiment: Study C: multiple dose study (Days 1–12) in noncastrate males with prostate cancer, serum hormone levels; format: in vivo, human
# Protocol: If this level of suppression was achieved, then it was planned to escalate the doses still higher to establish whether further suppression of testosterone was possible. […] This was a three-centre, open-label, phase one, multidose study in which sequential cohorts of three noncastrate patients were to receive treatment with abiraterone daily for 12 days. […] The starting dose of 500 mg was based upon the data from the single-dose studies. It was planned that a dose level would be expanded to six patients if any patient experienced toxicity ⩾ Grade III or if there was a significant suppression of serum cortisol in one patient (defined as per Study B above). All patients were followed for 28 days for any sign of toxicity. […] The schedule sampling differed slightly with samples removed at 0930 and 1730 on the day of treatment and thereafter in the morning on Days 2, 3, 4, 7, 8, 9, 10, 11, 14, 21 and 28. In Study C, a short […] test was also performed prior to therapy and again around Day 11.
# [2] = design: method as in Barrie et al, 1994; Dowsett et al, 1988; conditions: rodent model, intraperitoneal administration; ref Barrie et al, 1994; Dowsett et al, 1988; cited from earlier work
# cortisol synthesis = experiment: Short Synacthen test in Study C; format: in vivo, human
# Protocol: The schedule sampling differed slightly with samples removed at 0930 and 1730 on the day of treatment and thereafter in the morning on Days 2, 3, 4, 7, 8, 9, 10, 11, 14, 21 and 28. In Study C, a short Synacthen test was also performed prior to therapy and again around Day 11.
# testosterone synthesis [3] = experiment: Study B: single dose study in noncastrate males with prostate cancer, serum hormone levels; format: in vivo, human
# Protocol: This was a single dose study in noncastrate males (testosterone level ⩾9.0 nmol l^−1) to determine the dose of abiraterone acetate that was sufficient to cause suppression of testosterone synthesis to castrate levels (⩽2.0 nmol l^−1).
# This was a single-centre, open-label, phase one, single-dose study in which sequential cohorts of three noncastrate patients were to be treated at four dose levels: 200, 500, 650 and 800 mg. The starting dose of 200 mg was chosen when the results of study A were available.
# All patients were required to have a normal testosterone level prior to study entry (i.e. ⩾9.0 nmol l^−1) as well as normal gonadotrophin levels (Luteinising Hormone (LH) ⩽13 IU l^−1).
# (§1) Serum samples for endocrine analysis were obtained at 0, 2, 4, 8 and 24 h on a single day in the week prior to treatment commencement and then on Days 1, 2, 3, 4 and 7. As the duration of testosterone suppression was longer than originally anticipated, additional samples were added on Days 10, 14 and 21. The serum samples were analysed for testosterone, cortisol, 17 α-hydroxyprogesterone (17HP), androstenedione, LH and follicle-stimulating hormone (FSH) using commercially available kits. However, the DPC Coat-a-count kit for testosterone was sensitised using a larger volume of sample/standard and extension of the standard curve. […] All endocrine analyses were conducted by radioimmunoassay except for LH and FSH, which were by enzyme immunoassay.
# testosterone synthesis [4] = experiment: Study A: single dose study in castrate males with prostate cancer, serum hormone levels; format: in vivo, human; conditions: single dose of 500 mg, castrate males
# Protocol: Significant suppression was defined as either testosterone <0.14 nmol l^−1 in individual patients with a pretreatment value of <0.6 nmol l^−1 or a ⩾75% reduction in individual patients with a pretreatment value of ⩾0.6 nmol l^−1.
# This was a single-centre, open-label, phase one, single-dose study in which sequential cohorts of three medically or surgically castrate patients were to receive treatment at five dose levels: starting at 10 mg and increasing to 30, 100, 200 and 500 mg. […] A confirmatory testosterone level of between 0.2 and 2.0 nmol l^−1 was also required.
# as §1
# [5] = Pharmacokinetics in patient plasma (LC-MS); format: in vivo, human; conditions: at the dose levels studied, all three studies combined
# Protocol: Sample extracts were analysed by a fully validated liquid chromatography mass spectrometry method. The instrument consisted of Wisp Model 717 autosampler including a Model 600MS system controller with a quaternary U6K LC pump. A Finnigan MAT TSQ 700 triple quadrupole mass spectrometer was used as the detection system, together with Finnigan MAT ICIS and ICL software for data capture and processing (ThermoQuest Ltd, San Jose, CA, USA). The separation of analytes was performed on a Supelcosil LC-ABZ (5 μm, 250 × 4.6 mm) analytical column protected by a guard column (Supelco, Bellefonte, PA, USA). The mobile phase consisted of 570 ml of 20 mM ammonium acetate solution, 100 ml tetrahydrofuran and 1330 ml acetonitrile and was delivered at a flow rate of 1 ml min^−1 throughout the system. Column eluant was subjected to electrospray ionisation and monitored by selected ion monitoring (SIM) of protonated pseudo-molecular ions of authentic standards of abiraterone acetate and abiraterone, and GP488 (an analogue of abiraterone used as internal standard). For SIM, the scan width was 0.25 and the total scan time was 2.99 s. Also, heated capillary temperature=250°C, spray voltage=4.5 kV, collision offset=−49.9 V and electron multiplier voltage=1200 eV. Samples were extracted as follows: 50 μl of acetonitrile and 40 μl of 50 μM GP488 internal standard were added to 500 μl of patient plasma. […] The dried residue was reconstituted by vortexing in 150 μl of acetonitrile and transferred into autosampler vials. Aliquots (100 μl) of these samples were injected onto the LC column. […] A comprehensive PK profile (Cmax, Tmax, T1/2α T1/2 and Kabs) was determined for each patient. Pharmacokinetic parameters were evaluated using WinNonLin Software® and were conducted at The Institute of Cancer Research (Sutton). Blood was sampled for analysis of abiraterone concentration prior to drug administration and at the following times on Day 1: 30 min, 1, 2, 4, 6, 8 and 12 h. In the multidose study, samples were also drawn prior to treatment on Days 2, 3, 4, 7, 8, 9, 10, 11 and 14 with additional samples on Days 21 and 28. Samples (7 ml) were collected into vacutainer tubes (BD, Rutherford, NJ, USA) containing EDTA and immediately centrifuged to separate the plasma. At least 2 ml of plasma was transferred into polypropylene tubes (NUNC) and frozen at –20° until analysis.
# [6] = 500 mg daily Days 1–12, noncastrate patients
smiles,measurement,setting,value
CC(=O)O[C@H]1CC[C@@]2(C)C(=CC[C@@H]3[C@@H]2CC[C@]2(C)C(c4cccnc4)=CC[C@@H]32)C1 [abiraterone acetate],testosterone level reached,"testosterone synthesis [1]; 500 mg daily Days 1–12, all three noncastrate patients",≤ 2.0 nmol/L
same,duration of substantial testosterone suppression,testosterone synthesis [1]; [6],up to 9 days
same,serum cortisol levels,testosterone synthesis [1]; [6],remained within normal limits
same,time of maximal testosterone suppression,testosterone synthesis [1]; [6],1 to 3 days
same,target testosterone level of ⩽0.7 nmol l^−1,"testosterone synthesis [1]; 500 mg daily Days 1–12, three noncastrate patients",did not reach the target level
same,day on which target testosterone suppression (⩽0.7 nmol l^−1) was obtained,"testosterone synthesis [1]; 800 mg daily Days 1–12, first patient",1 days
same,testosterone level,"testosterone synthesis [1]; 800 mg daily, final patient, by Day 2",1.7 nmol/L
same,rise in LH,"testosterone synthesis [1]; 800 mg daily, final patient, from Day 3",two-fold rise
same,testosterone level,"testosterone synthesis [1]; 800 mg daily, final patient, from Day 4",> 2.0 nmol/L
same,testosterone levels for the duration of treatment,"testosterone synthesis [1]; 800 mg daily, first patient",≤ 2.0 nmol/L
same,increase in LH,"testosterone synthesis [1]; 800 mg daily, first patient, from Day 3",three-fold increase
same,duration of target testosterone suppression,"testosterone synthesis [1]; 800 mg daily, first patient, then reversed with rising LH",3 days
same,day on which target testosterone suppression (⩽0.7 nmol l^−1) was reached,"testosterone synthesis [1]; 800 mg daily, second patient",4 days
same,testosterone level,"testosterone synthesis [1]; 800 mg daily, second patient, Day 7, otherwise below target level",0.77 nmol/L
same,increase of Luteinising Hormone (LH) levels,"testosterone synthesis [1]; 800 mg days 1–12, two out of three patients, overcame suppression within 3 days",two- to three-fold
same,effect on FSH levels,"testosterone synthesis [1]; 800 mg, repeat dose",no effect
same,fall of evening cortisol from baseline evening cortisol,"testosterone synthesis [1]; multidose study, evening of Day 1, three patients",60% and 71% and 69%
same,dose required to maintain testosterone suppression to target levels,"testosterone synthesis [1]; repeat dose studies, noncastrate males",at least 800 mg
same,deacetylation,[2],rapid deacetylation
same,response to Synacthen,"cortisol synthesis; 500 mg daily, all three patients, by Day 11",abnormal response
same,mean change in cortisol in response to Synacthen,"cortisol synthesis; 500 mg daily, by Day 11, baseline 294.3 nmol l^−1",42 nmol/L
same,mean change in cortisol in response to Synacthen (percent),"cortisol synthesis; 500 mg daily, by Day 11, baseline +77%",+10%
same,cortisol response to the short Synacthen test,"cortisol synthesis; 800 mg daily, all three patients, Day 11",abnormal
same,mean change in cortisol levels in response to Synacthen,"cortisol synthesis; 800 mg daily, by Day 11, baseline 385 nmol l^−1",65.3 nmol/L
same,mean change in cortisol levels in response to Synacthen (percent),"cortisol synthesis; 800 mg daily, by Day 11, baseline 120%",23%
same,LH levels,"testosterone synthesis [3]; single oral dose 200 mg, noncastrate",did not alter
same,level of testosterone relative to baseline,"testosterone synthesis [3]; single oral dose 500 mg, noncastrate patients, Day 3, each case",less than 50%
same,change in cortisol level,"testosterone synthesis [3]; single oral dose, noncastrate patients",No change
same,patients with suppression of testosterone levels to <0.14 nmol l^−1,testosterone synthesis [4],four out of six
same,saturation of drug absorption,[5],no evidence of saturation of drug absorption
